Source: PubChem BioAssay AID1918930 (Molecular Pharmacology Branch, DTP, NCI, 2023)
“And” between values parts separate entries of the source, which are not always exact repeats. Equal values may be shown once.

System: 233499-124-R-J3-PDC complex spheroid viability, % test/control
Experiment: Anticancer human tumor 233499-124-R-J3-PDC patient-derived colon adenocarcinoma cell line growth inhibition
Details: for viability, T/C: stronger effect = lower value
Excerpt: Multicellular complex tumor spheroid response to LSD1 Inhibitor Iadademstat in combination with a variety of drugs and investigational agents in selected tumor cell lines
The current study was undertaken to assess response to LSD1 inhibitors in combination with standard-of-care drugs and investigational agents in solid tumor complex spheroid models as well as in the K-562 leukemia. Complex spheroids include a stromal component modeled by human endothelial cells (HUVEC) and fibroblasts modeled by human mesenchymal stem cells (MSCs). The concentration ranges selected for each drug and investigational agent were based upon clinically achievable concentrations if the clinical Cmax of the agent was known.
Compounds. The drugs and investigational agents used in this study are listed on Table 1. All of the agents used, including staurosporine (NSC755774) and gemcitabine (NSC613327), were obtained from the Developmental Therapeutics Program, NCI. FDA-approved anticancer drugs are available from the NCI at http://dtp.nci.nih.gov/branches/dscb/oncology_drugset_explanation.html. Drugs and investigational agents were >95% pure by proton nuclear magnetic resonance (NMR) and liquid chromatography/mass spectrometry (LC/MS). Stock solutions were prepared at 400x in DMSO, stored at -70 degrees C, and diluted in fresh medium prior to their use. The final concentration of DMSO in cell culture wells never exceeded 0.25% (v/v). The FDA-approved anticancer drug set is available from the Developmental Therapeutics Program at https://dtp.cancer.gov/organization/dscb/obtaining/available_plates.htm. All drugs and investigational agents were tested over a range starting from a high concentration at or near the clinical Cmax and decreasing in half-log increments. If the clinical Cmax for an agent had not been determined, the highest concentration tested was 10 microM.
Cell Lines. The patient-derived cancer cell (PDC) lines: 292921-168-R-J2-PDC, K24384-001-R-PDC, and 521955-158-R2-J5-PDC pancreatic carcinomas, 556581-035-R-J1 ovarian carcinoma, 324938-238-R-J1-PDC, 855422-203-R-J1-PDC and 883617-216-R-J1-PDC urothelial bladder carcinomas, 743489-274-T-PDC renal cell carcinoma, 138582-R-J1 Merkel cell tumor, K60290-347-R-J1 and K57222-313-R-J1-PDC glioblastomas, 653999-131-R-J2-PDC, LG0703-F948-PDC, and 349418-098-R-PDC non-small cell lung carcinomas, 885512-296-R-J2-PDC, 171881-019-R-J1-PDC breast carcinomas and 186277-243-T-J2-PDC and 233499-124-R-J2-PDC colon carcinomas were obtained from the NCI Patient-Derived Models Repository (PDMR, https://pdmr.cancer.gov). The established cell lines NCI/ADR-RES (RRID:CVCL_14520 and OVCAR-5 (RRID:CVCL_1628) ovarian carcinomas, 786-O (RRID:CVCL_1051) and A498 (RRID:CVCL_A498) renal cell carcinoma, NCI-H211 (ATCC, cat. CRL-5824; RRID:CVCL_1529), NCI-H196 (ATCC, cat. CRL-5823, RRID:CVCL_1509), SW 1271 (ATCC, cat. CRL-2177, RRID:CVCL_1716) and NCI-H1876 (ATCC, cat. CRL-5902, RRID:CVCL_1503) small cell lung carcinomas, MDA-MB-231 (RRID:CVCL_0062) and MDA-MB-468 (RRID:CVCL_0419)breast carcinomas (10-12). Pooled donor human umbilical vein endothelial cells (HUVEC, Lonza, cat. CC-2519) and human mesenchymal stem cells (hMSC, Lonza, cat. PT-2501) were purchased from Lonza (Walkersville, MD).
Cell Culture. All cells were maintained in an incubator at 37 degrees C and 5% CO2 with 95% humidity. The PDC lines were cultured according to standard operating procedures established by the NCI PDMR (https://pdmr.cancer.gov). Briefly all PDCs were thawed and cultured in Matrigel-coated flasks prepared with a working solution of 1X Ham's F-12 nutrient mix, without supplementation (Invitrogen, Waltham, MA, cat. 11765054), 100 U/mL penicillin-streptomycin (Invitrogen, cat. 15140122), and 2.5% Matrigel (Corning Inc., Corning, NY, cat. 354248) for the first three passages. […]
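Note: spheroids exposed to agents for one week before readout.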

Row | SMILES | IC50 (curve of compound) | viability, T/C (compound 0.00316 µM) | viability, T/C (compound 0.01 µM) | viability, T/C (compound 0.0316 µM) | viability, T/C (compound 0.1 µM) | viability, T/C (compound 0.316 µM) | viability, T/C (compound 1 µM) | viability, T/C (compound 0.00949 µM) | viability, T/C (compound 0.03 µM) | viability, T/C (compound 0.0949 µM) | viability, T/C (compound 0.3 µM) | further results
1 | CC1COCCN1c1cc(-c2ccnn2C)c2ccnc(-c3ccn[nH]3)c2n1 (stereo unspecified) | – | 91.4% and 59.2% | 93.3% and 48.8% | 61.6% and 40.6% | 34.6% and 38.1% | 16.5% and 47.6% | 31.2% and 97.3% | – | – | – | – | –
2 | COc1cc(C2c3cc4c(cc3C(OC3OC5COC(C)OC5C(O)C3O)C3COC(=O)C23)OCO4)cc(OC)c1O (stereo unspecified) | > 3 µM | – | – | – | – | – | – | 90.2% and 92.1% | 91.5% and 80.9% | 97.4% and 88.9% | 89% and 59.5% | viability, T/C (compound 0.949 µM): 65.2% and 53.7%; viability, T/C (compound 3 µM): 59% and 47.7%
3 | COc1ccc([C@@H](O)c2cc(-c3ncnc4cc(N5CCOCC5)ccc34)c(F)cc2Cl)nn1 | 4.17 µM and 5.86 µM | – | – | 81.5% and 87.1% | 76.2% and 85.3% | 77% and 72.1% | 82.3% and 74.6% | – | – | – | – | viability, T/C (compound 3.16 µM): 61.9% and 68.9%; viability, T/C (compound 10 µM): 12.8% and 35.8%
4 | Cn1ncnc1C1c2n[nH]c(=O)c3cc(F)cc(c23)NC1c1ccc(F)cc1 (stereo unspecified) | > 0.1 µM | 91.4% and 98% | 77.6% and 88.7% | 77.7% and 85.1% | 93.4% and 82.7% | – | – | – | – | – | – | viability, T/C (compound 0.000316 µM): 105% and 92.2%; viability, T/C (compound 0.001 µM): 95.1% and 80.9%
5 | NC1CC1c1ccc(-c2cccc(O)c2)cc1 (stereo unspecified) | – | – | – | – | 91.3% and 107% | – | – | – | – | – | – | IC50 (compound alone, run of 02/01/2022): > 10 µM
6 | NC1CCC(NC2CC2c2ccccc2)CC1 (stereo unspecified) | – | – | – | – | – | – | – | – | – | – | – | IC50 (compound alone, run of 01/24/2022): > 10 µM
7 | NS(=O)(=O)OCC1CC(n2ccc3c(NC4CCc5ccccc54)ncnc32)CC1O (stereo unspecified) | 0.0449 µM and 0.0491 µM | – | – | – | – | – | – | 106% and 87.5% | 58.4% and 62.6% | 35.3% and 33.8% | 12.7% and 6.06% | viability, T/C (compound 0.949 µM): 7.91% and 3.62%; viability, T/C (compound 3 µM): 6.79% and 2.48%
8 | Nc1ccn(C2OC(CO)C(O)C2(F)F)c(=O)n1 (stereo unspecified) | – | – | – | – | – | – | – | 40.4% and 80.5% | 26.6% and 68.5% | 31% and 48.6% | 54.3% and 46.2% | viability, T/C (compound 0.000949 µM): 69.7% and 82.2%; viability, T/C (compound 0.003 µM): 36.4% and 84.6%
9 | Nc1ncn(C2CC(O)C(CO)O2)c(=O)n1 (stereo unspecified) | > 1 µM | 81% and 90.1% | 88.7% and 101% | 83.8% and 87.1% | 89.8% and 79.8% | 106% and 94.6% | 104% and 77.4% | – | – | – | – | –
10 | Nc1ncn(C2CC(O)C(CO)S2)c(=O)n1 (stereo unspecified) | 0.133 µM and 0.16 µM | – | – | – | – | – | – | 119% and 95.5% | 100% and 94% | 59.1% and 62.5% | 28.4% and 35% | viability, T/C (compound 0.000949 µM): 92.5% and 83.6%; viability, T/C (compound 0.003 µM): 96% and 87.5%
11 | O=C(C=Cn1cnc(-c2cc(C(F)(F)F)cc(C(F)(F)F)c2)n1)NNc1cnccn1 | 0.192 µM and > 1 µM | 102% and 76.2% | 106% and 79.7% | 98.9% and 61.4% | 54.3% and 71.6% | 46.3% and 88.5% | 11.6% and 62% | – | – | – | – | –

Further lines, with some results ahead:

Row | IC50 (curve of compound) | SMILES | viability, T/C (compound 0.00316 µM) | viability, T/C (compound 0.01 µM) | viability, T/C (compound 0.0316 µM) | viability, T/C (compound 0.1 µM) | viability, T/C (compound 0.316 µM) | viability, T/C (compound 1 µM) | viability, T/C (compound 0.00949 µM) | viability, T/C (compound 0.03 µM) | viability, T/C (compound 0.0949 µM) | viability, T/C (compound 0.3 µM) | further results
12 | 0.00207 µM and 0.000496 µM | CC(C)CC(NC(=O)C(Cc1ccccc1)NC(=O)c1cnccn1)B(O)O (stereo unspecified) | 21.4% and 0.26% | 7.18% and 0.25% | 5.21% and 0.25% | 3.6% and 0.35% | – | – | – | – | – | – | viability, T/C (compound 0.000316 µM): 96% and 81.8%
13 | 0.00578 µM and 0.00492 µM | CC(C)CC(NC(=O)CNC(=O)c1cc(Cl)ccc1Cl)B1OC(=O)CC(CC(=O)O)(C(=O)O)O1 (stereo unspecified) | 102% and 78.5% | 9.9% and 4.05% | 7.32% and 0.21% | 5.06% and 0.23% | – | – | – | – | – | – | viability, T/C (compound 0.000316 µM): 90.6% and 106%; viability, T/C (compound 0.001 µM): 89.8% and 95.7%
14 | > 10 µM | CC(C)c1c(-c2ccccc2)nc2c(C#N)c[nH]n2c1=O | – | – | 90.9% and 92.4% | 103% and 96.3% | 92.6% and 89.1% | 95% and 106% | – | – | – | – | viability, T/C (compound 3.16 µM): 105% and 102%; viability, T/C (compound 10 µM): 96.2% and 115%
15 | > 10 µM and 2.59 µM | CC1(C)CCC(CN2CCN(c3ccc(C(=O)NS(=O)(=O)c4ccc(NCC5CCOCC5)c([N+](=O)[O-])c4)c(Oc4cnc5[nH]ccc5c4)c3)CC2)=C(c2ccc(Cl)cc2)C1 | – | – | 96.6% and 90.8% | 93.2% and 96.6% | 118% and 99.7% | 112% and 93.5% | – | – | – | – | viability, T/C (compound 3.16 µM): 120% and 40.8%
16 | > 10 µM | CC1COCCN1c1cc(C2(S(C)(=N)=O)CC2)nc(-c2ccnc3[nH]ccc23)n1 (stereo unspecified) | – | – | 86% and 97.4% | 92.5% and 98.9% | 75.2% and 90.7% | 65.8% and 86.7% | – | – | – | – | viability, T/C (compound 3.16 µM): 49.3% and 53.9%; viability, T/C (compound 10 µM): 63.4% and 54.3%
17 | > 3 µM | CCN(c1cc(-c2ccc(CN3CCOCC3)cc2)cc(C(=O)NCc2c(C)cc(C)[nH]c2=O)c1C)C1CCOCC1 | – | – | – | – | – | – | 81.1% and 101% | 86.2% and 103% | 101% and 96% | 103% and 97.8% | viability, T/C (compound 0.949 µM): 110% and 83.4%; viability, T/C (compound 3 µM): 99.1% and 52.7%
18 | > 0.1 µM | CC[C@@]1(O)C(=O)OCc2c1cc1n(c2=O)Cc2cc3c(CN(C)C)c(O)ccc3nc2-1 | 63.5% and 72.9% | 51.6% and 62.8% | 70% and 69.2% | 94.3% and 109% | – | – | – | – | – | – | viability, T/C (compound 0.000316 µM): 79.7% and 94.3%; viability, T/C (compound 0.001 µM): 70% and 85.8%
19 | 0.0284 µM and 0.0218 µM | CCc1c2c(nc3ccc(O)cc13)-c1cc3c(c(=O)n1C2)COC(=O)[C@]3(O)CC | – | – | – | – | – | – | 101% and 94% | 47.5% and 33.5% | 16.6% and 32.4% | 26.7% and 28.5% | viability, T/C (compound 0.000949 µM): 91.8% and 92.6%; viability, T/C (compound 0.003 µM): 106% and 117%
20 | < 0.00316 µM | COc1cc(Nc2ncc3c(n2)-c2ccc(Cl)cc2C(c2c(F)cccc2OC)=NC3)ccc1C(=O)O | 43.2% | 61% | 55.2% | 63.2% | 63.9% | 84.3% | – | – | – | – | –
21 | 0.637 µM and 0.401 µM | Nc1ccccc1NC(=O)c1ccc(CNC(=O)OCc2cccnc2)cc1 | – | – | – | – | – | – | 90.9% and 83.5% | 101% and 93.5% | 84.8% and 81% | 90% and 63.2% | viability, T/C (compound 0.949 µM): 28.9% and 12.3%; viability, T/C (compound 3 µM): 4.68% and 3.17%
22 | 3 µM and > 3 µM | O=C(C=Cc1cccc(S(=O)(=O)Nc2ccccc2)c1)NO | – | – | – | – | – | – | 93.1% and 104% | 116% and 98.3% | 128% and 104% | 141% and 98.9% | viability, T/C (compound 0.949 µM): 26.7% and 9.27%; viability, T/C (compound 3 µM): 96.4% and 90.1%
23 | > 10 µM | O=C(c1cc(Cc2n[nH]c(=O)c3ccccc23)ccc1F)N1CCN(C(=O)C2CC2)CC1 | – | – | 91.1% and 97.1% | 92.6% and 76.9% | 113% and 88.8% | 97.3% and 90.8% | – | – | – | – | viability, T/C (compound 3.16 µM): 76.1% and 75.5%; viability, T/C (compound 10 µM): 80.3% and 84.2%
